What all share (type): cell-based
The test system of experiment [1] is Human breast cancer cells MCF7. Put plainly: BNCT-enhancing effect by L-BPA confinement using cultured cells (colony formation after neutron irradiation). Conditions: MCF7 loaded with 100 μM L-[10B]BPA, then 10 μM compound for 60 minutes; neutron rays 5 MW for 4 minutes. How it is done:
Human breast cancer cells MCF7 were plate-cultured in an RPMI medium for 48 hours, then replaced with an RPMI medium containing 100 μM of L-[10B]BPA, and cultured for 15 minutes to allow the L-[10B]BPA to be taken up in the cells. After washing with HBSS, the cells were cultured in an RPMI medium for 60 minutes, and after further washing with HBSS, the cells were peeled off and stored in HBSS at room temperature for 1.5 hours ((−) in FIG. 3A). L-BPA was taken up in the cells, washed with HBSS and then cultured in an RPMI medium containing the compound of Example 1-1 (10 μM) obtained in the present invention for 60 minutes, and after further washing with HBSS, the cells were peeled off and stored in HBSS at room temperature for 1.5 hours ((+) in FIG. 3A). The cells were cultured in an RPMI medium containing no L-[10B]BPA for 15 minutes, and after washing with HBSS, the cells were peeled off and stored in HBSS at room temperature for 1.5 hours ((No BPA Hot control) in FIG. 3A). These three cell samples were irradiated with neutron rays (5 MW for 4 minutes). After irradiation, in order to measure viable cells, the cells were plate-cultured and the number of colonies generated after 2 weeks was measured. The number of viable cells was evaluated as surviving fraction (%) (FIG. 3A).

In another experiment the target is T1, human LAT2 (Homo sapiens, UniProt Q9UHI5).
T1 construct: having full-length cDNA of human LAT1 or LAT2 inserted under a promoter of CMV; expressed in transfected cells
T1 sequence (Q9UHI5 1-535): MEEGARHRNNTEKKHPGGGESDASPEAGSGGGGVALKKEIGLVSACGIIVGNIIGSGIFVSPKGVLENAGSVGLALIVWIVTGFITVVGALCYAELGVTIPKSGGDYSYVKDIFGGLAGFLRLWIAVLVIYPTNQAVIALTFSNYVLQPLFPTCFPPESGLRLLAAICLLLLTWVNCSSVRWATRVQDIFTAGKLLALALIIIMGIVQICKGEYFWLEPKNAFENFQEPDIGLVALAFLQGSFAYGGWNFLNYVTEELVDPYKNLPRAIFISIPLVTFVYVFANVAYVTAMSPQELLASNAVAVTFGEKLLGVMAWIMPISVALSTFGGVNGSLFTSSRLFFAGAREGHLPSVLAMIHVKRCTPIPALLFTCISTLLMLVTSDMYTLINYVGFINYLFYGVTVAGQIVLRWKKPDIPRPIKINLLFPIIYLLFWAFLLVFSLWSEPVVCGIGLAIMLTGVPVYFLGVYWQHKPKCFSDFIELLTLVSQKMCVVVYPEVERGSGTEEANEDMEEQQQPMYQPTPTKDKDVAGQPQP
T1 sequence (P08195 1-529 partner): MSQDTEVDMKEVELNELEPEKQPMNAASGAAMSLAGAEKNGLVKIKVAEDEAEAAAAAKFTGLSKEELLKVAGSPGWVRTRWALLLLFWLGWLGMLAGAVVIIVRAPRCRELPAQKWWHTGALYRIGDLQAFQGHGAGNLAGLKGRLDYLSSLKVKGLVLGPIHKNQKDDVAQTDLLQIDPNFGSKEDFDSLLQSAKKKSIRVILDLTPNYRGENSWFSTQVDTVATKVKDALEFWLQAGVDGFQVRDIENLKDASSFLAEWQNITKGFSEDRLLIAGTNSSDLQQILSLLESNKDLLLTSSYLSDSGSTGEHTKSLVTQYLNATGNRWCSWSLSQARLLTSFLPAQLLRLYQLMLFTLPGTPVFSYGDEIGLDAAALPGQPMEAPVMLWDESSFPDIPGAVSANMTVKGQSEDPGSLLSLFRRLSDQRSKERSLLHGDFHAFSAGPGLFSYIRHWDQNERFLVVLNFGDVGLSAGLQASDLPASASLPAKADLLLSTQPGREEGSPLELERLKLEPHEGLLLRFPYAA
Nature of the experiment: [14C]L-alanine uptake inhibition test using human-LAT2 stably expressing HEK293 cell line. From the text:
HEK293 cells stably expressing human LAT1 and LAT2 were produced, respectively.
A shuttle vector DNA (LAT1: pcDNA3.1(+) -hLAT1, LAT2: pcDNA3.1(+) -hLAT2; expression vector pcDNA3.1 (+) was produced by Invitrogen Corp.) having ampicillin and neomycin resistance markers and having full-length cDNA of human LAT1 or LAT2 inserted under a promoter of CMV (cytomegalovirus) was constructed. This vector was transfected into the HEK293 cells by a method using Lipofectamine (registered trademark) 2000 (Invitrogen Corp.) according to the manufacturer's instructions. […]
[^14C]L-alanine uptake inhibition using the compound of Example 1-1 was performed using the human-LAT2 stably expressing HEK293 cell line. In the same manner as in the [^14C]L-leucine uptake inhibition experiment in the human-LAT1 stably expressing HEK293 cell line, the human-LAT2 stably expressing HEK293 cell line was seeded in a 24-well plate at 1×10^5 Cell/Well, and after 48 hours, 1 μM of [^14C]L-alanine was taken up in Na^+-free HBSS in the presence of the compound (0.1, 1.0, 10, 0 μM in each case), which is a racemic form, of Example 1-1 for 1 minute, then the uptake amount of [^14C]L-alanine and the protein amount of the cell lysate were measured, and the uptake amount of [^14C]L-alanine per 1 mg of protein in the cell per minute was determined.

Experiment [2] has as its system Mouse colorectal cancer-derived CT26 cells. Nature of the experiment: Cell proliferation inhibitory effect using mouse colorectal cancer cells (CCK-8 assay). The settings on record: 72 hours compound treatment, read-out: Evaluation of IC50 (proliferation inhibition rate of 50%). In outline: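 Cells seeded at 1000 per well in RPMI 1640 with 10% FBS; after 24 h medium replaced with compound at 0.01-30 μM. Viable cells counted by CCK-8 after 72 h of treatment, and IC50 taken as the concentration giving 50% proliferation inhibition relative to untreated control.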
(In general: Tetrazolium assays rely on reduction of a dye to a coloured formazan, in cell work by metabolically active cells.)

Structures are written as SMILES.

As for `NC1(C(=O)O)CCc2ccc(Oc3ccc4ccccc4c3)cc2C1` (stereo not shown) [Example 1-1, 2-carboxy-7-(naphthalene-2-yloxy)-1,2,3,4-tetrahydronaphthalene-2-aminium chloride], the “BNCT-enhancing effect (surviving fraction after neutron irradiation)” value in experiment [1] is listed as “large BNCT-enhancing effect”. The “inhibitory action on LAT2 alanine uptake compared with LAT1 leucine uptake inhibition” value against human LAT2 (LAT2 versus LAT1 stably expressing HEK293 cell line) is listed as “weaker inhibitory action”. The IC50 on human LAT2 (racemic form, 1 μM [14C]L-alanine, 1 minute, Na+-free HBSS, read-out: 50% suppression concentration, [14C]L-alanine uptake) is ~1 µM; in experiment [2] it was ≤ 0.9 µM.

These data come from US20260035339A1, “TETRAHYDRONAPHTHALENE DERIVATIVE” (ATRANSEN PHARMA LTD., priority 2022, published 2026).
